Reference: ChEMBL document CHEMBL1909046, “DrugMatrix in vitro pharmacology data”

Legend:
[1] = target: Beta-3 adrenergic receptor (Homo sapiens, UniProt P13945); experiment: DRUGMATRIX: Adrenergic beta3 radioligand binding (ligand: [125I] Cyanopindolol); format: cell membranes, HEK293, Membrane; conditions: Not Active = under 50% inhibition at 10 µM; for Ki: read-out: Ki
[2] = DRUGMATRIX: Serotonin (5-Hydroxytryptamine) 5-HT3 radioligand binding (ligand: [3H] GR-65630); format: cell membranes, Membrane; conditions: hek293; Not Active = under 50% inhibition at 10 µM
[3] = target: T1, Cholecystokinin receptor type A (Homo sapiens, UniProt P32238); format: cell membranes, Membrane; conditions: 1321-n1; also: in other assays of this panel Not Active means under 50% inhibition at 10 µM
T1 sequence (P32238 whole entry): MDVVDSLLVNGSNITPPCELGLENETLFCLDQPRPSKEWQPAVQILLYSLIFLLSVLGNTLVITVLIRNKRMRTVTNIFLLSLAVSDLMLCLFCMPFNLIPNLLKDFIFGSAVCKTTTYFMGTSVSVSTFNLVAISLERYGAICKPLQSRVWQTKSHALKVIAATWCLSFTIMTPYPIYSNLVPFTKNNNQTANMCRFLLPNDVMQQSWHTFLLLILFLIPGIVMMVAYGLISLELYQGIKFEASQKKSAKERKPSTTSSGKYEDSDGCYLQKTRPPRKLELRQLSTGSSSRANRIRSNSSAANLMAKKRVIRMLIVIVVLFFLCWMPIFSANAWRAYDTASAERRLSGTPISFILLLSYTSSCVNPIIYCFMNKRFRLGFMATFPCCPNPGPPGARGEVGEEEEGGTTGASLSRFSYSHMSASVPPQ

[4] = DRUGMATRIX: Glutamate, NMDA, Agonism radioligand binding (ligand: [3H] CGP-39653); format: cell membranes, Rattus norvegicus, Wistar, Cerebral cortex, Membrane; conditions: Not Active = under 50% inhibition at 10 µM
[5] = DRUGMATRIX: Nicotinic Acetylcholine radioligand binding (ligand: [125I] Epibatidine); format: cell membranes, Membrane; conditions: imr-32; Not Active = under 50% inhibition at 10 µM
[6] = DRUGMATRIX: Phorbol Ester radioligand binding (ligand: [3H] PDBu); format: cell membranes, Mus musculus, ICR, Brain, Membrane; conditions: Not Active = under 50% inhibition at 10 µM
[7] = target: Receptor tyrosine-protein kinase erbB-2 (Homo sapiens, UniProt P04626); experiment: biochemical; format: cell-based, Insect cells;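 also: inhibition of HER2 kinase enzyme activity, measured with Poly(Glu:Tyr) as the phosphorylation substrate; in other assays of this panel Not Active means under 50% inhibition at 10 µM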
[8] = target: T2, Estrogen receptor (Homo sapiens, UniProt P03372); conditions: sf9; also: in other assays of this panel Not Active means under 50% inhibition at 10 µM
T2 sequence (P03372 whole entry): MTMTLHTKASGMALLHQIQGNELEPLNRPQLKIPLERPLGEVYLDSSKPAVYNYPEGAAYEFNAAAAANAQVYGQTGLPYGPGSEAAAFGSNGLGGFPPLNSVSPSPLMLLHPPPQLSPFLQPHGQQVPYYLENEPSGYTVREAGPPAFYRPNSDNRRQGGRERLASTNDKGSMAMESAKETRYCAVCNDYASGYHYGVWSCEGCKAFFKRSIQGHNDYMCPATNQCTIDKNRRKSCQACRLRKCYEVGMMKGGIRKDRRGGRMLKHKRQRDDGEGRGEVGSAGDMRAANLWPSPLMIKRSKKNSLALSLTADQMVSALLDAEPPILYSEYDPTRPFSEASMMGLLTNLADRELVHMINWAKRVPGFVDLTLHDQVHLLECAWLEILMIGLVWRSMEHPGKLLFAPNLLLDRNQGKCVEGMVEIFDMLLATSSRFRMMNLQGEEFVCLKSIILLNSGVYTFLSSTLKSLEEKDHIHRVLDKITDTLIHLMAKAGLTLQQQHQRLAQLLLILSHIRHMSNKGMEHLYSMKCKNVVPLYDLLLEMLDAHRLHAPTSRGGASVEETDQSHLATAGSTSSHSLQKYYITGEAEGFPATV

Chain of Receptor tyrosine-protein kinase erbB-2 (P04626 whole entry): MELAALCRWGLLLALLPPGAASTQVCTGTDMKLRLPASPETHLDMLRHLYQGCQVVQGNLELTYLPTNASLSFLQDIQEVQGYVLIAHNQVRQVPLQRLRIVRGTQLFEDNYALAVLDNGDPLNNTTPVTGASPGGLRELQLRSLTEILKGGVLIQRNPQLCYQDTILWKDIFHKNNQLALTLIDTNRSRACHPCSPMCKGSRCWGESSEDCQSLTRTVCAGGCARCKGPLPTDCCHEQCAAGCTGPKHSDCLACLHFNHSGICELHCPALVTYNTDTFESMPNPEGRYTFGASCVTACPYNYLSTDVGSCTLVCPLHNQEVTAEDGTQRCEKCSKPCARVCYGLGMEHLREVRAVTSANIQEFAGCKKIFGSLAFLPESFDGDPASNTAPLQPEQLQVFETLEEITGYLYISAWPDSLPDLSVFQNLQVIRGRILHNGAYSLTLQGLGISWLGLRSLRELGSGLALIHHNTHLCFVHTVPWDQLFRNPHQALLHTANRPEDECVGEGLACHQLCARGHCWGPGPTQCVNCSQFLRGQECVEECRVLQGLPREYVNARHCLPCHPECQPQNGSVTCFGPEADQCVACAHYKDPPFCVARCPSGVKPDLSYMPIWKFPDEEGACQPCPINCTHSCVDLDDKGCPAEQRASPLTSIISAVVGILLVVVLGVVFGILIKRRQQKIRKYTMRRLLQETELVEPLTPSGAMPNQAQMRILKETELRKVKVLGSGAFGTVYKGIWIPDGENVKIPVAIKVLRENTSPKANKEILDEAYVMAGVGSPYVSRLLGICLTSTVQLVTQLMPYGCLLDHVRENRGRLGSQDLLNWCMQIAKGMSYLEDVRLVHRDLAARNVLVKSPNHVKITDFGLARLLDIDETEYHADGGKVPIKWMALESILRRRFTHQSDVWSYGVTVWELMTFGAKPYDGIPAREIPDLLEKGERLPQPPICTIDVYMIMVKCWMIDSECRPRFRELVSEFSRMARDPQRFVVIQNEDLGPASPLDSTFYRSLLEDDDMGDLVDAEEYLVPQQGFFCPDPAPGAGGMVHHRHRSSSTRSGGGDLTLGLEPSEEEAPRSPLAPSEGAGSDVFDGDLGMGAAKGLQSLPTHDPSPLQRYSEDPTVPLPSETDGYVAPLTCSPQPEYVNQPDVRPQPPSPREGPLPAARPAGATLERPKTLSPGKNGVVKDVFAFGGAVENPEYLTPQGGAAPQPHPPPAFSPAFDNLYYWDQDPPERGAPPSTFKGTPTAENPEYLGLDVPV
Chain of Beta-3 adrenergic receptor (P13945 whole entry): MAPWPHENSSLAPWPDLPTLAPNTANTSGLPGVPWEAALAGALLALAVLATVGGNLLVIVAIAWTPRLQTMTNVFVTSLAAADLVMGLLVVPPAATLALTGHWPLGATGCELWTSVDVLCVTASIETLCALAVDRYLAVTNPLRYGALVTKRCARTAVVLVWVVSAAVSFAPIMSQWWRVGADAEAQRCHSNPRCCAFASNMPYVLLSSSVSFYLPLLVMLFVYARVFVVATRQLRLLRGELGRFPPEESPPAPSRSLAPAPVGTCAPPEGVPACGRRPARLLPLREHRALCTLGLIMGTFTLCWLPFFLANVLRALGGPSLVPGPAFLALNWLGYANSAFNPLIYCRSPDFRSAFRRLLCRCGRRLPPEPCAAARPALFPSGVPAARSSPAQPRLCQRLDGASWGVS

Row | SMILES | IC50 ([1]; hek293) | IC50 [2] | Ki [2] | IC50 [3] | IC50 [4] | Ki [4] | IC50 [5] | Ki [5] | IC50 [6] | Ki [6] | IC50 ([7]; insect cells) | IC50 [8] | IC50 ([1]; read-out: IC50) | Ki [1] | IC50 ([7]; read-out: IC50)
1 | CN(CCOc1ccc(CC2SC(=O)NC2=O)cc1)c1ccccn1 (stereo not given) [ROSIGLITAZONE] | Not Active | Not Active | Not Active | Not Active | Not Active | Not Active | Not Active | Not Active | Not Active | Not Active | Not Active | Not Active |  |  | 
2 | C=C(C)[C@H]1Cc2c(ccc3c2O[C@@H]2COc4cc(OC)c(OC)cc4[C@@H]2C3=O)O1 [ROTENONE] | Not Active | Not Active | Not Active | Not Active | Not Active | Not Active | Not Active | Not Active | Not Active | Not Active | Not Active |  |  |  | 
3 | OCCN1CCN(CCCN2c3ccccc3Sc3ccc(C(F)(F)F)cc32)CC1 [FLUPHENAZINE] |  |  |  | Not Active |  |  |  |  |  |  |  | Not Active | 29.5 µM | 22.1 µM | 19.6 µM
4 | CC[C@@H](CO)NC(=O)[C@@H]1C=C2c3cccc4c3c(cn4C)C[C@H]2N(C)C1 [METHYSERGIDE] | Not Active |  |  | Not Active |  |  |  |  |  |  | Not Active | Not Active |  |  | 
5 | CCCc1nn(C)c2c(=O)[nH]c(-c3cc(S(=O)(=O)N4CCN(C)CC4)ccc3OCC)nc12 | Not Active | Not Active | Not Active | Not Active | Not Active | Not Active | Not Active | Not Active | Not Active | Not Active | Not Active |  |  |  | 
6 | CC(=O)Nc1nnc(S(N)(=O)=O)s1 [ACETAZOLAMIDE] | Not Active |  |  | Not Active |  |  |  |  |  |  | Not Active | Not Active |  |  | 
7 | CCN(CC)CC#CCOC(=O)C(O)(c1ccccc1)C1CCCCC1 (stereo not given) [OXYBUTYNIN] | Not Active |  |  | Not Active |  |  |  |  |  |  | Not Active |  |  |  | 
8 | CC(C)(C)NC[C@H](O)COc1nsnc1N1CCOCC1 [TIMOLOL] |  | Not Active | Not Active | Not Active | Not Active | Not Active | Not Active | Not Active | Not Active | Not Active | Not Active |  | 0.452 µM | 0.339 µM | 
9 | O=c1[nH]c2ccccc2n1CCCN1CCC(n2c(=O)[nH]c3cc(Cl)ccc32)CC1 [DOMPERIDONE] | Not Active |  |  | Not Active |  |  |  |  |  |  | Not Active |  |  |  | 
10 | O=c1n(CCCN2CCN(c3cccc(Cl)c3)CC2)nc2ccccn12 [TRAZODONE] | Not Active |  |  | Not Active |  |  |  |  |  |  | Not Active |  |  |  | 
11 | Nc1ccc(S(=O)(=O)Nc2ncccn2)cc1 [SULFADIAZINE] | Not Active | Not Active | Not Active | Not Active | Not Active | Not Active | Not Active | Not Active | Not Active | Not Active | Not Active |  |  |  | 
12 | O=C(O)C(Cl)(Cl)Cl [TRICHLOROACETIC ACID] | Not Active | Not Active | Not Active | Not Active | Not Active | Not Active | Not Active | Not Active | Not Active | Not Active | Not Active |  |  |  | 
